# Legend:
# lipoamide = compound: NC(=O)CCCCC1CCSS1 [lipoamide]; assay: thermal stability z-score vs DMSO; higher = more thermally stabilized by treatment; conditions: HeLa, lipoamide concentration 100 µM
# Experimental: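 Cellular thermal proteome profiling in HeLa cells. Cells were treated with 100 µM lipoamide for 1 h, with or without 1 mM arsenate for a further 1 h, then heated to ten temperatures (37-66.3 °C), and soluble protein was quantified by TMT mass spectrometry relative to 0.1% DMSO controls. The thermal stability score (sum of log2 fold changes minus the abundance score) was transformed to a z-score; mean of n = 3 experiments.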
# potassium arsenate = compound: O=[As]([O-])(O)O.[K+] [potassium arsenate]; assay: as above; conditions: HeLa; arsenate concentration 1 mM
# Experimental: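 Cellular thermal proteome profiling in HeLa cells treated with 1 mM arsenate for 1 h (DMSO pretreatment), heated to ten temperatures (37-66.3 °C). Soluble protein was quantified by TMT mass spectrometry relative to DMSO controls; the thermal stability score was transformed to a z-score; mean of n = 3 experiments.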
# [1] = arsenate co-treatment: 1 mM arsenate 1 h
# 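Also: each temperature applied for 3 min, abundance score taken as mean log2 fold change at the two lowest temperatures, z-score obtained by mean subtraction and division by SD.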
# Chain of UniProt Q86T24 (Q86T24 whole entry): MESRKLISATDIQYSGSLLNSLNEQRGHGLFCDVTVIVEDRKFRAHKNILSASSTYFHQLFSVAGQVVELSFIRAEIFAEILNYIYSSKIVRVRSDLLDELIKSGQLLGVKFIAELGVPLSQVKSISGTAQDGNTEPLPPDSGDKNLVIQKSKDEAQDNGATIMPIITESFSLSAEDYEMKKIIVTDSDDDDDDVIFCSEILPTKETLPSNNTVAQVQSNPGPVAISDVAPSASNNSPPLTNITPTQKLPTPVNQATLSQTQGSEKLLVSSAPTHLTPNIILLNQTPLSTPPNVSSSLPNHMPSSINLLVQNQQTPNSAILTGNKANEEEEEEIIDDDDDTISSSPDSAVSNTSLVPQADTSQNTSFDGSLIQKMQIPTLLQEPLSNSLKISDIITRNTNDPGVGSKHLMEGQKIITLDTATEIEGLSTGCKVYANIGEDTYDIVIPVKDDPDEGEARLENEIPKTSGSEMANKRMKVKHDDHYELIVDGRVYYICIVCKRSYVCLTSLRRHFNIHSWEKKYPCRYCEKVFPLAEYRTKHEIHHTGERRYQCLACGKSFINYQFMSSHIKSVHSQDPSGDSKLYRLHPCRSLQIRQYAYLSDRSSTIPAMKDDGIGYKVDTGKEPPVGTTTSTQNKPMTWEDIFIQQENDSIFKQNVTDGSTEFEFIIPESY
# Chain of UniProt O43251 (O43251 whole entry): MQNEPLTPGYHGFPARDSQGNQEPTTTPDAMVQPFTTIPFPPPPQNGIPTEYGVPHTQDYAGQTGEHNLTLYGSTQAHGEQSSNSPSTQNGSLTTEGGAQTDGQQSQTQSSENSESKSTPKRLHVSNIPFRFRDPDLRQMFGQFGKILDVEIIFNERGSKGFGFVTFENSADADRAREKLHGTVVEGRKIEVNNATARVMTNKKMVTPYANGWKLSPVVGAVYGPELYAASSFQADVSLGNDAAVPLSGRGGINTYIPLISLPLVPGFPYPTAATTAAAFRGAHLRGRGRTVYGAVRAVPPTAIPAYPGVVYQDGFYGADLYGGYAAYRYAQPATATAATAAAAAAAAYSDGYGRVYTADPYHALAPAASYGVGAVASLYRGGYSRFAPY
# Chain of UniProt Q8TAP6 (Q8TAP6 whole entry): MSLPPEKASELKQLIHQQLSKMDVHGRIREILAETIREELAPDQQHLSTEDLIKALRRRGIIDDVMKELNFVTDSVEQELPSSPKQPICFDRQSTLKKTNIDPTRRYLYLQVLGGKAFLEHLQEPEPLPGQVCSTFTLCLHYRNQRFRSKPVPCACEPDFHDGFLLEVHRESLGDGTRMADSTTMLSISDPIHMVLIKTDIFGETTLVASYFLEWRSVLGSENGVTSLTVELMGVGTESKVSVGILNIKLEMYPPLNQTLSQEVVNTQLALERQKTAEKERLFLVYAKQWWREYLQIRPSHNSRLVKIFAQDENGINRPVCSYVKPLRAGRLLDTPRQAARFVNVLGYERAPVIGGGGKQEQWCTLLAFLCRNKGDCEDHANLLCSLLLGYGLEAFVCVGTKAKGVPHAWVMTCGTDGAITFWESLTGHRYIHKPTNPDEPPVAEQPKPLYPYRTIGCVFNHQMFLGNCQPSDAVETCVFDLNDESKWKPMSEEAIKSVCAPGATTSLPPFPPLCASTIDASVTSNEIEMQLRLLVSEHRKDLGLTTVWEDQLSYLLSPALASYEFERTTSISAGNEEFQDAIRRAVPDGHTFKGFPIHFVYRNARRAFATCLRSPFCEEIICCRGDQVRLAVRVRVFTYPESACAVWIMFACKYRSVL
# Chain of UniProt Q86VU5 (Q86VU5 whole entry): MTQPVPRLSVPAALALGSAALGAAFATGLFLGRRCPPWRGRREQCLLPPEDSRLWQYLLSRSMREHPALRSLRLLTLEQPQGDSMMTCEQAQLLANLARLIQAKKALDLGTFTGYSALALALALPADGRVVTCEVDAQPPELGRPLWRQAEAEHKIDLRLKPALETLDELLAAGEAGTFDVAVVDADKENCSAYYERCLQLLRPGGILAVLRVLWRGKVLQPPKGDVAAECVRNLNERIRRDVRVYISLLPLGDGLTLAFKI
# Chain of UniProt Q9BXS6 (Q9BXS6 whole entry): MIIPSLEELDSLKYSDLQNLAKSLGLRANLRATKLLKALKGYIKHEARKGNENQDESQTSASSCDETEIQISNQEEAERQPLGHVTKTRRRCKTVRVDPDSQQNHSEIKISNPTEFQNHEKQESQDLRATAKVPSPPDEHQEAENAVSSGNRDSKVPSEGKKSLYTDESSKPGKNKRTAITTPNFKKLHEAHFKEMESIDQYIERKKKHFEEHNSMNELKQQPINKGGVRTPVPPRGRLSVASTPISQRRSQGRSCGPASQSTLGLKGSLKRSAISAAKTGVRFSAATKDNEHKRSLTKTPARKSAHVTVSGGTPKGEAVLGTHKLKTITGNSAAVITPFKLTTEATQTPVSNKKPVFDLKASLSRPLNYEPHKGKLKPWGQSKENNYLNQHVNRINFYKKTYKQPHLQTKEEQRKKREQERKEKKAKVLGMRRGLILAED
# Chain of UniProt Q8N142 (Q8N142 whole entry): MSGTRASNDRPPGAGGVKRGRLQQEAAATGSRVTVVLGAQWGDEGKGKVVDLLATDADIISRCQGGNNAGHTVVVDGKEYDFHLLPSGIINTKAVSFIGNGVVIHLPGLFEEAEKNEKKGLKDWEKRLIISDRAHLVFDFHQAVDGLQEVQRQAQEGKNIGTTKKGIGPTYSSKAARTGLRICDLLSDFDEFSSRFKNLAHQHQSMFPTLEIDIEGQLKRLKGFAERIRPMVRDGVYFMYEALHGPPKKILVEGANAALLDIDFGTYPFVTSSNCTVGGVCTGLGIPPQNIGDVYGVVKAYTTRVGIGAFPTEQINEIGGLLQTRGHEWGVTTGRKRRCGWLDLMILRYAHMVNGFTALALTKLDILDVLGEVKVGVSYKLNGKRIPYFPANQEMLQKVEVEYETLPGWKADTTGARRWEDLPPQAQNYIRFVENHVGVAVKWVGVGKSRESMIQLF
# Chain of UniProt Q8TDQ7 (Q8TDQ7 whole entry): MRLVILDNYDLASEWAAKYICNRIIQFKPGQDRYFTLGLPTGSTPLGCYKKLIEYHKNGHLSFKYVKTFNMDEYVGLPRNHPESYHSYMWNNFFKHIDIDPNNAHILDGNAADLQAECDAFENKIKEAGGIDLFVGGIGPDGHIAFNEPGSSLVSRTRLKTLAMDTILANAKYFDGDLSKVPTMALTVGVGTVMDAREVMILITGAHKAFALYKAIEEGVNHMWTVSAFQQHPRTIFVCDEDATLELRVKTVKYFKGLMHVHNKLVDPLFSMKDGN
# Chain of UniProt Q9HCN4 (Q9HCN4 whole entry): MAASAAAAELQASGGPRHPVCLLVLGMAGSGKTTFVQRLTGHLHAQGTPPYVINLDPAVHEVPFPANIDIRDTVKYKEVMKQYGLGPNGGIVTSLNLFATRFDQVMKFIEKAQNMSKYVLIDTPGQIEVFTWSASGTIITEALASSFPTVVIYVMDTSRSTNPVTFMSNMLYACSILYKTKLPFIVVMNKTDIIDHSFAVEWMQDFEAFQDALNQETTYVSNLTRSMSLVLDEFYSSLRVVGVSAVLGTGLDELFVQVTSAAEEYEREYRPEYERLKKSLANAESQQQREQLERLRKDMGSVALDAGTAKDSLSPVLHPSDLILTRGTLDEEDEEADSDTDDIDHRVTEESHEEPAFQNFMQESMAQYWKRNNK
# Chain of UniProt O60936 (O60936 whole entry): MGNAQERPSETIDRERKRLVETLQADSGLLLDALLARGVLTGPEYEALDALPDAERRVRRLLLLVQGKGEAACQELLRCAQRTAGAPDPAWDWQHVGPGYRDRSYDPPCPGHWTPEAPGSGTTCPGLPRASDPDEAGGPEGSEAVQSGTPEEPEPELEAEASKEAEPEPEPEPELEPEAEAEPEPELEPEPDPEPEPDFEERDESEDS
# Chain of UniProt Q9NVT9 (Q9NVT9 whole entry): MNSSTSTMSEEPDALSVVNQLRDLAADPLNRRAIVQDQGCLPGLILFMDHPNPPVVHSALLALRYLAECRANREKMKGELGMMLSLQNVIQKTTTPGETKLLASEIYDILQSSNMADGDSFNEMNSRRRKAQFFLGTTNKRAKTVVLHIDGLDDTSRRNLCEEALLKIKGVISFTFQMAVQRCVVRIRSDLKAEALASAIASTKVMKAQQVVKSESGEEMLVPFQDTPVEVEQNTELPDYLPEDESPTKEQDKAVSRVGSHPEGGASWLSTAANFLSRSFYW
# Chain of UniProt Q86SF2 (Q86SF2 whole entry): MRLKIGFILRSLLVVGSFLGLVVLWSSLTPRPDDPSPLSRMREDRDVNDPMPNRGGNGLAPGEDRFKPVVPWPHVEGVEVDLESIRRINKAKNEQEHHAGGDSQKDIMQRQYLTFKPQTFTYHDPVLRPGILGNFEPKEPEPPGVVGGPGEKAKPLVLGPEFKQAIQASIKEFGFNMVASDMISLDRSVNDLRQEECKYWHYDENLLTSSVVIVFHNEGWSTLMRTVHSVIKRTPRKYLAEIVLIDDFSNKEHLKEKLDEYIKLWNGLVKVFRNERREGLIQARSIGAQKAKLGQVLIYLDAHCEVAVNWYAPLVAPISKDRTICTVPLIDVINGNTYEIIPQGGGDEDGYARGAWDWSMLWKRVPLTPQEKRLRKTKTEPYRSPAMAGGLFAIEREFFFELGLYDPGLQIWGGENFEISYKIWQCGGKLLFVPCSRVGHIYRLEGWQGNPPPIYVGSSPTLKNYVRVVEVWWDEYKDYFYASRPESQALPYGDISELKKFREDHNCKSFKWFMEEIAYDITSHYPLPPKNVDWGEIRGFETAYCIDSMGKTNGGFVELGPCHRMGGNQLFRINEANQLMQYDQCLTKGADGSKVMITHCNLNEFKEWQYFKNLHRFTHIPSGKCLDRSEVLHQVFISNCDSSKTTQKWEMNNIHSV
# Chain of UniProt P67870 (P67870 whole entry): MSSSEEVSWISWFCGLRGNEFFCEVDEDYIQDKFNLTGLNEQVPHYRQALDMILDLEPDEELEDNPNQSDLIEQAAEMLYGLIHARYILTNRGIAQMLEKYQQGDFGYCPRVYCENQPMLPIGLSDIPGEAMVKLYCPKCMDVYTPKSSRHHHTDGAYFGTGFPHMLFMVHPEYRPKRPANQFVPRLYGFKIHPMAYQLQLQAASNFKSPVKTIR
Target,thermal stability z-score (lipoamide; [1]),thermal stability z-score (lipoamide; arsenate co-treatment: none),thermal stability z-score (potassium arsenate)
STAT6 (UniProt P42226),0.0546,-0.269,0.472
ELF1 (UniProt P32519),-0.422,-0.185,-0.287
SNRPGP15|SNRPG,1.63,0.677,0.296
PRPF19 (UniProt Q9UMS4),1.23,0.686,-0.692
AKAP8L (UniProt Q9ULX6),0.0418,-0.0231,-0.163
CEP76 (UniProt Q8TAP6),-0.336,0.197,-1.36
RBFOX2 (UniProt O43251),-0.112,0.314,0.171
HDGF (UniProt P51858),0.026,0.439,0.19
EXD2 (UniProt Q9NVH0),-0.228,-0.168,-0.499
CSNK2B (UniProt P67870),1.66,1.48,0.656
CDC42EP4 (UniProt Q9H3Q1),-0.323,-0.652,0.499
HSPBP1 (UniProt Q9NZL4),-0.134,-0.197,0.872
METTL10 (UniProt Q5JPI9),-0.0093,0.0402,0.206
SNX8 (UniProt Q9Y5X2),1.1,-0.149,-0.369
ABR (UniProt Q12979),-0.754,-0.915,-0.555
TNFRSF10A (UniProt O00220),-1.82,-1.91,-1.65
KIAA1033 (UniProt Q2M389),-0.344,-0.193,-0.0284
RPL9 (UniProt P32969),0.762,0.659,-0.232
OMA1 (UniProt Q96E52),-0.791,-1.46,-0.431
ADSSL1 (UniProt Q8N142),0.111,0.223,0.237
TTK (UniProt P33981),-0.85,-0.0774,0.742
DGAT1 (UniProt O75907),-0.44,-0.27,-0.264
PDF (UniProt Q9HBH1),-0.494,-0.231,-0.495
FKBP5 (UniProt Q13451),-0.637,-0.429,-0.667
WFS1 (UniProt O76024),-0.47,-0.487,-0.022
POLR2B (UniProt P30876),0.77,0.769,0.205
ARF6 (UniProt P62330),0.394,0.237,0.683
ZBTB33 (UniProt Q86T24),-0.0938,-0.0683,-0.107

Target,thermal stability z-score (lipoamide; [1]),thermal stability z-score (lipoamide; arsenate co-treatment: none),thermal stability z-score (potassium arsenate)
COMTD1 (UniProt Q86VU5),-0.328,-1.94,-0.237
FLNC (UniProt Q14315),0.266,0.657,0.567
ARHGEF5 (UniProt Q12774),-0.685,0.596,0.214
MITD1 (UniProt Q8WV92),0.39,0.109,0.168
EDIL3 (UniProt O43854),-0.15,-0.528,1.14
ASPHD1 (UniProt Q5U4P2),-0.334,0.214,-0.276
P4HTM (UniProt Q9NXG6),0.0884,-0.262,-0.0889
NOL3 (UniProt O60936),0.615,0.549,0.236
PPCS (UniProt Q9HAB8),-0.183,0.122,-0.328
IFI16 (UniProt Q16666),0.022,0.122,-0.386
GNPDA2 (UniProt Q8TDQ7),-0.212,-0.181,-0.0337
BSDC1 (UniProt Q9NW68),-0.585,-0.361,-0.209
SSB (UniProt P05455),-0.542,0.233,0.363
CMTR1 (UniProt Q8N1G2),-0.292,0.406,1.15
CLPTM1 (UniProt O96005),-3.11,-2.81,0.0364
GPN1 (UniProt Q9HCN4),-0.0201,-0.00238,0.212
RTF1 (UniProt Q92541),0.13,0.0546,-0.323
ENO3 (UniProt P13929),0.308,-0.4,-0.432
RPL18A (UniProt Q02543),0.628,0.246,-0.333
GIT2 (UniProt Q14161),1.13,1.87,1
EXOC6B (UniProt Q9Y2D4),0.36,1.01,0.332
UBASH3B (UniProt Q8TF42),-0.0394,-0.103,-0.165
LAMB2 (UniProt P55268),-1.69,-1.75,-0.248
NUSAP1 (UniProt Q9BXS6),0.43,0.187,0.758
ARMC1 (UniProt Q9NVT9),0.616,0.111,0.476
GALNT7 (UniProt Q86SF2),0.205,-0.0334,0.187
FNDC3A (UniProt Q9Y2H6),-0.542,0.324,0.846

# From the supplement of paper PMC12463676, “Small-molecule dissolution of stress granules by redox modulation benefits ALS models” (Nature Chemical Biology, 2025)
